Read-outs that look alike come from different tables or passages of the source.
Key:
human orexin-1 receptor = target: T1, human orexin-1 receptor (Homo sapiens, UniProt O43613); test: Intracellular calcium measurements (FLIPR), orexin receptor antagonistic activity; type: cell-based; details: CHO cells expressing human orexin-1 receptor, 3 nM orexin-A, read-out: OX1 IC50
T1 construct: expressed in transfected cells; host or cells: Chinese hamster ovary (CHO) cells, G418 selection
T1 sequence (O43613 1-425): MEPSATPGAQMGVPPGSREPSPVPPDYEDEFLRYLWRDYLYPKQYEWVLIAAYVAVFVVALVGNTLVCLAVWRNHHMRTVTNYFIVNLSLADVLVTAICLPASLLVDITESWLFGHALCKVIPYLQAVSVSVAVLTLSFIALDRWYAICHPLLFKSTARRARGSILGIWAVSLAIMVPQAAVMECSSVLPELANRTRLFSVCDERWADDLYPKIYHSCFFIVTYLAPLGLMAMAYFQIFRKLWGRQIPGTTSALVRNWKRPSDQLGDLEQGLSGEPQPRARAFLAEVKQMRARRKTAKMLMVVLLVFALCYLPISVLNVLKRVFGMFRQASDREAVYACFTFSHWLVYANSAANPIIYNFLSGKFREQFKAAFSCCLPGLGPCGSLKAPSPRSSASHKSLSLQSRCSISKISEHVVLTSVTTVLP
Procedure: (§1) The orexin receptor antagonistic activity of the compounds of formula (I) is determined in accordance with one of the following experimental methods.
(§2) Intracellular Calcium Measurements:
(§3) Chinese hamster ovary (CHO) cells expressing the human orexin-1 receptor and the human orexin-2 receptor, respectively, are grown in culture medium (Ham F-12 with L-Glutamine) containing 300 μg/ml G418, 100 U/ml penicillin, 100 μg/ml streptomycin and 10% heat inactivated fetal calf serum (FCS). The cells are seeded at 20'000 cells/well into 384-well black clear bottom sterile plates (Greiner). The seeded plates are incubated overnight at 37° C. in 5% CO2.
(§4) Human orexin-A as an agonist is prepared as 1 mM stock solution in MeOH:water (1:1), diluted in HBSS containing 0.1% bovine serum albumin (BSA), NaHCO3:0.375 g/l and 20 mM HEPES for use in the assay at a final concentration of 3 nM.
(§5) Antagonists are prepared as 10 mM stock solution in DMSO, then diluted in 384-well plates, first in DMSO, then in HBSS containing 0.1% bovine serum albumin (BSA), NaHCO3: 0.375 g/l and 20 mM HEPES.
(§6) On the day of the assay, 50 μl of staining buffer (HBSS containing 1% FCS, 20 mM HEPES, NaHCO3: 0.375 g/l, 5 mM probenecid (Sigma) and 3 μM of the fluorescent calcium indicator fluo-4 AM (1 mM stock solution in DMSO, containing 10% pluronic) is added to each well.
(§7) The 384-well cell-plates are incubated for 50 min at 37° C. in 5% CO2 followed by equilibration at RT for 30-120 min before measurement.
(§8) Within the Fluorescent Imaging Plate Reader (FLIPR2 or FLIPR Tetra, Molecular Devices), antagonists are added to the plate in a volume of 10 μl/well, incubated for 10 min and finally 10 μl/well of agonist is added. Fluorescence is measured for each well at 1 second intervals, and the height of each fluorescence peak is compared to the height of the fluorescence peak induced by 3 nM orexin-A with vehicle in place of antagonist. For each antagonist, the IC50 value (the concentration of compound needed to inhibit 50% of the agonistic response) is determined. With the FLIPR Tetra, non-optimized and optimized conditions were used. Optimized conditions were achieved by adjustment of pipetting speed and cell splitting regime. The calculated IC50 values of the compounds may fluctuate depending on the daily cellular assay performance. Fluctuations of this kind are known to those skilled in the art.

human orexin-2 receptor = target: T2, human orexin-2 receptor (Homo sapiens, UniProt O43614); test: as above; type: cell-based; details: CHO cells expressing human orexin-2 receptor, 3 nM orexin-A, read-out: OX2 IC50
T2 construct: expressed in transfected cells; host or cells: Chinese hamster ovary (CHO) cells, G418 selection
T2 sequence (O43614 1-444): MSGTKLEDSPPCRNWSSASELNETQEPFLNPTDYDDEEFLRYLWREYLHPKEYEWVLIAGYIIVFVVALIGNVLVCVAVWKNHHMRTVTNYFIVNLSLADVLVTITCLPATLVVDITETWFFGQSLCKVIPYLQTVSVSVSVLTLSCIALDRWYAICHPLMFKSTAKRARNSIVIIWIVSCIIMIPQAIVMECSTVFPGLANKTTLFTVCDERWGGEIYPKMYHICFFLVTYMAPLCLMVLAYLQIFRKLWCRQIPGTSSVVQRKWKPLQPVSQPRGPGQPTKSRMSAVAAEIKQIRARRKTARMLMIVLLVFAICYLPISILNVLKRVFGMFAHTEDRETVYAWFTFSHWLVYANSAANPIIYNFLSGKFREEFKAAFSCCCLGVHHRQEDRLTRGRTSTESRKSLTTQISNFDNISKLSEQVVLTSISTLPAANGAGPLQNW
Procedure: as §1, §2, §3, §4, §5, §6, §7, §8

[1] = FLIPR Tetra, optimized conditions
[2] = FLIPR Tetra, non-optimized conditions

Cc1ccc(-c2ccsc2C(=O)N2C[C@@H]3C[C@@H]3[C@H]2CNC(=O)c2c(C)nc3sccn23)cc1 [Example 222, 6-Methyl-imidazo[2,1-b]thiazole-5-carboxylic acid [(1S,2S,5R)-3-(3-p-tolyl-thiophene-2-carbonyl)-3-aza-bicyclo[3.1.0]hex-2-ylmethyl]-amide]
IC50 (human orexin-1 receptor; [1]): 96 nM | IC50 (human orexin-2 receptor; [1]): 79 nM

Cc1ccc(-c2sccc2C(=O)N2C[C@@H]3C[C@@H]3[C@H]2CNC(=O)c2cccc3nsnc23)cc1 [Example 274, Benzo[2,1,3]thiadiazole-4-carboxylic acid [(1S,2S,5R)-3-(2-p-tolyl-thiophene-3-carbonyl)-3-aza-bicyclo[3.1.0]hex-2-ylmethyl]-amide]
IC50 (human orexin-1 receptor; [1]): 58 nM | IC50 (human orexin-2 receptor; [1]): 55 nM

Cc1cccc(-c2sc(C)nc2C(=O)N2C[C@@H]3C[C@@H]3[C@H]2CNC(=O)c2cccc3nc(C)oc23)c1 [Example 256, 2-Methyl-benzoxazole-7-carboxylic acid [(1S,2S,5R)-3-(2-methyl-5-m-tolyl-thiazole-4-carbonyl)-3-aza-bicyclo[3.1.0]hex-2-ylmethyl]-amide]
IC50 (human orexin-1 receptor; [1]): 64 nM | IC50 (human orexin-2 receptor; [1]): 55 nM

O=C(NC[C@@H]1[C@H]2C[C@H]2CN1C(=O)c1ccccc1-c1ccccc1)c1cccc2occc12 [Example 2, Benzofuran-4-carboxylic acid[(1S,2S,5R)-3-(biphenyl-2-carbonyl)-3-aza-bicyclo[3.1.0]hex-2-ylmethyl]-amide]
IC50 (human orexin-1 receptor; FLIPR2): 34 nM | IC50 (human orexin-2 receptor; FLIPR2): 102 nM

Cc1nc(C(=O)N2C[C@@H]3C[C@@H]3[C@H]2CNc2ncc(Br)cn2)c(-c2ccc(C)c(F)c2)s1 [Example 252, {(1S,2S,5R)-2-[(5-Bromo-pyrimidin-2-ylamino)-methyl]-3-aza-bicyclo[3.1.0]hex-3-yl}-[5-(3-fluoro-4-methyl-phenyl)-2-methyl-thiazol-4-yl]-methanone]
IC50 (human orexin-1 receptor; [2]): 79 nM | IC50 (human orexin-2 receptor; [2]): 350 nM

Cc1cccc(-c2sc(C)nc2C(=O)N2C[C@@H]3C[C@@H]3[C@H]2CNC(=O)c2nccc3ccccc23)c1 [Example 54, Isoquinoline-1-carboxylic Acid[(1S,2S,5R)-3-(2-methyl-5-m-tolyl-thiazole-4-carbonyl)-3-aza-bicyclo[3.1.0]hex-2-ylmethyl]-amide]
IC50 (human orexin-1 receptor; FLIPR2): 26 nM | IC50 (human orexin-2 receptor; FLIPR2): 18 nM

CN(C)c1nc(C(=O)N2C[C@@H]3C[C@@H]3[C@H]2CNC(=O)c2scc3c2OCCO3)c(-c2cccc(F)c2)s1 [Example 220, 2,3-Dihydro-thieno[3,4-b][1,4]dioxine-5-carboxylic acid {(1S,2S,5R)-3-[2-dimethylamino-5-(3-fluoro-phenyl)-thiazole-4-carbonyl]-3-aza-bicyclo[3.1.0]hex-2-ylmethyl}-amide]
IC50 (human orexin-1 receptor; [2]): 115 nM | IC50 (human orexin-2 receptor; [2]): 48 nM

Cc1cccc(-c2sc(C)nc2C(=O)N2C[C@@H]3C[C@@H]3[C@H]2CNC(=O)c2cccc3c2OCC(=O)N3)c1 [Example 169, 3-Oxo-3,4-dihydro-2H-benzo[1,4]oxazine-8-carboxylic Acid[(1S,2S,5R)-3-(2-methyl-5-m-tolyl-thiazole-4-carbonyl)-3-aza-bicyclo[3.1.0]hex-2-ylmethyl]-amide]
IC50 (human orexin-1 receptor; FLIPR2): > 10000 nM | IC50 (human orexin-2 receptor; FLIPR2): 61 nM

Source: patent US8063099B2, “Trans-3-aza-bicyclo[3.1.0]hexane derivatives” (Actelion Pharmaceuticals Ltd., priority 2007, dated 2011)
